Earlier results in patent publication US20090215102A1, “Method to Assess Breast Cancer Risk” (priority 2005, published 2009).
Structures can show the parent of a compound that is named as a salt. Where two headings read alike, the source gives them in different places.

What was measured:
[1] = in vivo
[2] = tested on: estrogen receptors; conditions: preclinical data
[3] = tested on: rat mammary carcinoma induced by dimethylbenzanthracene (DMBA)
[4] = tested on: breast cancer

For `CC/C(=C(\c1ccccc1)c1ccc(OCCNC)cc1)c1ccccc1` [N-desmethyl tamoxifen], the “half-life of metabolite suggested by time to steady state” value [1] is listed as ~14 days.
For `O=C(c1ccc(OCCN2CCCCC2)cc1)c1c(-c2ccc(O)cc2)sc2cc(O)ccc12` [Raloxifene], the “action in uterine and breast tissues” value [2] is listed as “estrogen antagonist” and the “clearance following chronic dosing” value is listed as 40 to 60 L/kg per hour.
For `CC/C(=C(\c1ccccc1)c1ccc(OCCN(C)C)cc1)c1ccccc1` [Tamoxifen citrate], the “antiestrogenic properties in animal test systems” value ([3]; animal test systems) is listed as “potent antieskogenic properties”.
For `CC/C(=C(\c1ccccc1)c1ccc(OCCN(C)C)cc1)c1ccccc1` [Tamoxifen], the associated toxicity ([4]; particularly women aged 50 or older) is given as “increased risk of endometrial cancer, stroke, pulmonary emboli, and deep vein thrombosis”, the “breast cancer risk reduction” value ([4]; women with a history of LCIS) is given as 56% and the “breast cancer risk reduction” value ([4]; women with a history of atypical ductal hyperplasia) is given as 86%. The “induction of rat mammary carcinoma induced by DMBA” value ([3]; rat) was “inhibits the induction”.
